For assay [1], the target named is Cyclin-dependent kinase 2 (Homo sapiens, UniProt P24941).
Assay [2] addresses Cyclin-dependent kinase 1 (Homo sapiens, UniProt P06493).
Description: Inhibition of Cyclin-dependent kinase 1 (CDK1) at 12.5 uM ATP

Structures are written as SMILES.

Sequence of Cyclin-dependent kinase 1 (P06493 whole entry): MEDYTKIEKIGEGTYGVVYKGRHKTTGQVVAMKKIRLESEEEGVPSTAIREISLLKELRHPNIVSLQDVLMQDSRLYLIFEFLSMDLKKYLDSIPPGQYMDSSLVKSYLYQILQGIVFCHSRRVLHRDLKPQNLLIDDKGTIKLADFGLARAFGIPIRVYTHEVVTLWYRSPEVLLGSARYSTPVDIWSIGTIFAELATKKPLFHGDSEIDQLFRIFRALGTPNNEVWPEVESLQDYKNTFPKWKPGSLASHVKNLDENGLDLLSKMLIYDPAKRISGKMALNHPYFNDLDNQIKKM

On to `COc1ccc(Nc2nc(N)c(N=O)c(OCC3CCCCC3)n2)cc1`, for which the IC50 in assay [1] turned out to be 0.22 µM; in assay [2] it was 0.23 µM.
The like results for `NC(=O)c1ccc(Nc2nc(N)cc(OCC3CCCCC3)n2)cc1` were, in that order, 59 µM and 63 µM.
For `Nc1cc(OCC2CCCCC2)nc(Nc2ccc(S(N)(=O)=O)cc2)n1`, the IC50 in assay [1] worked out at 2.9 µM; in assay [2], 5.3 µM.
The like results for `Nc1nc(Nc2cccc(Br)c2)nc(OCC2CCCCC2)c1N=O` were, in that order, 0.5 µM and 0.8 µM.
In the same order, the values of `Nc1nc(Nc2ccc(S(N)(=O)=O)cc2)nc(OCC2CCCCC2)c1N=O` are 0.0011 µM and 0.005 µM.
Take `CSc1ccc(Nc2nc(N)c(N=O)c(OCC3CCCCC3)n2)cc1`: the IC50 in assay [1] amounted to 0.12 µM; in assay [2], 0.22 µM.

The values above are taken from ChEMBL document CHEMBL1136212, “Structure-based design of 2-arylamino-4-cyclohexylmethyl-5-nitroso-6-aminopyrimidine inhibitors of cyclin-dependent kinases 1 and 2” (Bioorg Med Chem Lett, 2003).
